# Results from patent US10076505B2, “Inhalation formulations of Treprostinil” (priority 2003, dated 2018).
# What was measured:
# [1] = test system: rat; settings: orally, 1 mg/kg, cited from earlier work
# [2] = in vivo; cited from earlier work
# [3] = test system: sheep; assay: Prolonged U44069 intravenous infusion, pulmonary vascular resistance and hemodynamics (Example II); format: in vivo
# Description: Sheep were used as the animal model of choice for these experiments for a number of reasons. First is the docile nature of sheep. They will stand quietly in metabolic cages without having to utilize tranquilizing drugs, which have the potential to complicate experimental results. Second, sheep are large enough to allow direct measurement of CO, PPA, PLA, PCV, and PSYS. Sheep are also large enough to allow direct aerosolization of substances into the lung via trachoestomy thereby preventing swallowing of drugs and thus eliminating a possible secondary route of administration of UT-15. Third, sheep can tolerate a great amount of instrumentation with little or no discomfort. Fourth, sheep have been utilized for several years as an animal model of pulmonary arterial hypertension and thus, there is a great amount of historical data with which to compare the results. The agent chosen to induce pulmonary arterial hypertension was a PGH2 analog, U44069 (9,11-dideoxy,9α,11α-epoxymethanoprostaglandin F2α). The reasons for using U44069 are that it is a very potent pulmonary vasoconstrictor, its characteristics are very similar to endogenously formed thromboxane A2, and it can be titrated to induce the desired degree of pulmonary vasoconstriction. U44069 was mixed with sterile normal saline immediately prior to being used and was protected from light by wrapping the solution with aluminum foil. The concentration of U44069 was adjusted such that a minimal flow rate of 0.8 ml per min was being infused into the sheep. This was done because more concentrated U44069 would have to be infused at very low rates and often causes “pulses” of U44069 due to the infusion characteristics of roller pumps. The U44069 pulses cause vasoconstriction “spikes” and thus would create induce a non-steady-state.
# Six yearling sheep (3 males, 3 females; 21-37 kg) were fasted 18-24 hours and initially anesthetized with a short acting barbiturate (thiopental) to allow intubation of the sheep. Halothane gas anesthesia (1.5-2.5%) was then used for the surgical procedures. Via a left thoracotomy, a Transonic blood flow probe was placed around the main pulmonary artery, silastic catheters placed in the main pulmonary artery and left atrium. After approximately 7 days the sheep were reanesthetized and the left carotid artery cannulated, a Cordis Introducer Sheath inserted in the left jugular vein, and a tracheotomy made. The sheep were allowed to recover for another 3-5 days prior to experimentation. These sheep were used to allow measurement of pulmonary arterial pressure (PPA), left atrial pressure (PLA), central venous pressure (PCV), systemic arterial pressure (PSYS), heart rate (HR), and cardiac output (CO) after baseline measurements were made for a minimum of 30 minutes.
# In four sheep, the ability of U44069 to maintain a steady-state increase in PVR was determined. After a 30 minute baseline, U44069 was infused at a rate of 1 microgram per kg of body weight per minute for 180 minutes. […] In particular, FIG. 9 illustrates that intravenously infused U44069 causes PVR to reach a steady-state increase by 30 minutes and that the steady-state increase lasts for a minimum of 180 minutes. U44069 caused significant alterations in other variables (data not shown) over the 180 minute infusion period relative to their baseline values: PPA increased, HR decreased, CO decreased.
# [4] = test system: sheep; assay: Intravenous and aerosolized UT-15 dose response during U44069 induced pulmonary hypertension (Example V); format: in vivo; settings: U44069 infused intravenously at 1 ng per kg per min
# Description: Sheep were used as the animal model of choice for these experiments for a number of reasons. First is the docile nature of sheep. They will stand quietly in metabolic cages without having to utilize tranquilizing drugs, which have the potential to complicate experimental results. Second, sheep are large enough to allow direct measurement of CO, PPA, PLA, PCV, and PSYS. Sheep are also large enough to allow direct aerosolization of substances into the lung via trachoestomy thereby preventing swallowing of drugs and thus eliminating a possible secondary route of administration of UT-15. Third, sheep can tolerate a great amount of instrumentation with little or no discomfort. Fourth, sheep have been utilized for several years as an animal model of pulmonary arterial hypertension and thus, there is a great amount of historical data with which to compare the results. […] The reasons for using U44069 are that it is a very potent pulmonary vasoconstrictor, its characteristics are very similar to endogenously formed thromboxane A2, and it can be titrated to induce the desired degree of pulmonary vasoconstriction. U44069 was mixed with sterile normal saline immediately prior to being used and was protected from light by wrapping the solution with aluminum foil. The concentration of U44069 was adjusted such that a minimal flow rate of 0.8 ml per min was being infused into the sheep. This was done because more concentrated U44069 would have to be infused at very low rates and often causes “pulses” of U44069 due to the infusion characteristics of roller pumps. The U44069 pulses cause vasoconstriction “spikes” and thus would create induce a non-steady-state. Six yearling sheep (3 males, 3 females; 21-37 kg) were fasted 18-24 hours and initially anesthetized with a short acting barbiturate (thiopental) to allow intubation of the sheep. Halothane gas anesthesia (1.5-2.5%) was then used for the surgical procedures. Via a left thoracotomy, a Transonic blood flow probe was placed around the main pulmonary artery, silastic catheters placed in the main pulmonary artery and left atrium. After approximately 7 days the sheep were reanesthetized and the left carotid artery cannulated, a Cordis Introducer Sheath inserted in the left jugular vein, and a tracheotomy made. The sheep were allowed to recover for another 3-5 days prior to experimentation. These sheep were used to allow measurement of pulmonary arterial pressure (PPA), left atrial pressure (PLA), central venous pressure (PCV), systemic arterial pressure (PSYS), heart rate (HR), and cardiac output (CO) after baseline measurements were made for a minimum of 30 minutes. Two separate experiments were conducted to determine the dose response effects of intravenously infused UT-15 and aerosolized UT-15 during U44069 induced pulmonary hypertension. After a 30 minute baseline was established, U44069 was infused intravenously at a rate of 1 ng per kg per min. For the intravenous administration of UT-15 and after allowing the sheep to achieve a steady-state for 30-60 minutes, a dose-response to intravenous UT-15 was similar to that set forth in Example IV. For the aerosolized administration of UT-15 and after allowing the sheep to achieve a steady-state for 30-60 minutes, a dose-response to intravenous UT-15 was similar to that set forth in Example IV. In each experimental protocol, UT-15 was administered to three sheep for 30 minutes and to the other three sheep for 60 minutes.
# [5] = U44069 iv 1 microgram per kg per minute for 180 minutes, four sheep
# [6] = U44069 iv 1 microgram per kg per minute, 180 minute infusion
smiles,measurement,setting,value
"CCCCC[C@H](O)CC[C@@H]1[C@H]2Cc3cccc(OCC(=O)OC)c3C[C@H]2C[C@H]1O [9-deoxy-2′,9α-methano-3-oxa-4,5,6-trinor-3,7-(1′,3′-interphenylene)-PGF1, methyl ester]",blood pressure still lower after 52 min,[1]; after 52 min,14 mm
same,lowered blood pressure,[1],44 mmHg
CCCCC[C@H](O)CC[C@@H]1[C@H]2Cc3cccc(OCC(=O)[O-])c3C[C@H]2C[C@H]1O.[Na+] [Treprostinil sodium],plasma half life,[2],more than 4 hours
"CCCCC[C@H](O)/C=C/C1C2COC(C2)C1C/C=C\CCCC(=O)O (stereo partly drawn) [U44069, 9,11-dideoxy,9α,11α-epoxymethanoprostaglandin F2α]",duration of steady-state increase in PVR,[3]; [5],≥ 180 min
same,time for PVR to reach a steady-state increase,[3]; [5],≤ 30 min
same,cardiac output (CO) relative to baseline,[3]; [6],decreased
same,heart rate (HR) relative to baseline,[3]; [6],decreased
same,pulmonary arterial pressure (PPA) relative to baseline,[3]; [6],increased
same,left atrial pressure (PLA) relative to baseline,"[3]; U44069 iv infusion, any time point",did not significantly change
same,central venous pressure (PCV) relative to baseline,"[3]; U44069 iv infusion, significant only at 30 and 60 minutes",increased
same,systemic arterial pressure (PSYS) relative to baseline,"[3]; U44069 iv infusion, statistically different only at 120, 150 and 180 minutes",increased above baseline values
same,PPA relative to baseline,[4],significantly increased
same,PVR,[4],dramatic increase
same,cardiac output relative to baseline,[4],decrease
same,left atrial pressure,[4],did not alter
